Where two headings read alike, the source gives them in different places.

Consider 21 molecules from PMC9649909, “Wnt-pathway inhibitors with selective activity against triple-negative breast cancer: From thienopyrimidine to quinazoline inhibitors” (Frontiers in Pharmacology, 2022).

Data set [1] relates to β-catenin-dependent Wnt-pathway. As to the kind of experiment: TopFlash luciferase reporter assay, CHIR99021-stimulated, HCC1395. It is filed as cell-based. As to conditions: for GSK HCC1395 Comments: Table S2; for IC50 / Emax: Homo sapiens; for TopFlash activity in words: HCC1395, CHIR99021; for Emax: read-out: HCC1395 TopFlash Efficacy. The text has this: Both stimulations abolish formation of the destruction complex, a multiprotein complex consisting of Axin, adenomatous polyposis coli (APC), glycogen synthase kinase three beta (GSK3β), and casein kinase one alpha (CK1α). Upon inactivation of the complex, β-catenin accumulates in the cytoplasm and translocates into the nucleus where it interacts with transcription factors. These downstream events are quantified by a Luciferase transcription-based readout assay (TopFlash assay).

Data set [2] can be described thus: in vitro. As to conditions: human. The protocol: (§1) The simplicity of the scaffold combined with synthetic accessibility allows building a library of compounds and performing structure activity relationship (SAR) studies of the three main parts of the molecule: the top part, the linker and the core (Figure 2).
(§2) The synthesized compounds were used to explore SAR of three defined areas of investigation (Figure 2). All compounds were tested in the HCC1395 TNBC cell line using the GSK3β inhibitor to induce β-catenin signaling since 4a acted downstream of GSK3β (Figure 2). Both inhibition of β-catenin signaling measured by the TopFlash reporter and cytotoxicity measured by the Renilla reporter were assessed.
(§3) The Wnt3a or CHIR99021-stimulated luciferase activity in HCC1395 TNBC cell line stably transfected with the TopFlash reporter was analyzed essentially as described for the BT-20 TNBC cell line ([Shaw et al., 2019b]; [Koval et al., 2021]). Reporter cells were seeded at 10,000 cells/well in a white opaque 384-well plate in the final volume of 20 μl of DMEM medium supplemented with 10% FCS. The cells were maintained incubated at 37°C, 5% CO2 overnight for attachment. Subsequently, they were transfected by a plasmid encoding constitutively expressed Renilla luciferase under the CMV promoter overall as described in the manufacturer’s protocol using 12 μg/ml of DNA and 40 μl/ml XtremeGENE nine reagent. The next day, the medium in each well was replaced with a 10 μl of fresh medium containing compound of interest, and, after 1 h of preincubation with the compounds, additional 10 μl of medium supplemented with Wnt3a [purified as described ([Willert et al., 2003]; [Koval and Katanaev, 2011])] or CHIR99021 were added creating respective final concentrations of 2.5 μg/ml or 5 μM of each. In case of other signal transduction reporters, no additional stimulation was performed. Compound dilutions were prepared by serial dilution in DMSO and diluted with the amount of medium necessary to obtain their final concentrations indicated on the figures and tables and maintain concentration of DMSO of 0.5% in all assay points. After overnight incubation, the supernatant in each well was removed, and the luciferase activity was measured as described ([Dyer et al., 2000]; [Huber et al., 2021]; [Pellissier et al., 2021]). The culture medium was completely removed from all wells of the plate. Finally, the luciferase activity of the firefly and Renilla luciferases was detected sequentially in individual wells of a 384-well plate through injection of corresponding measurement solutions and immediate reading (400 ms integration time) in Infinite M Plex multifunctional plate reader with injection module.

In data set [3] the test system is HCC1395 cells. As to the kind of experiment: in vitro. As to conditions: for HCC1395 Cytotoxicity Efficacy: human. The protocol: as §1, §2, §3
Setting [4] is: HCC1395, HCC1395, stimulation with CHIR99021 (GSK3β inhibitor), read-out: HCC1395 TopFlash IC50.
The mark [5] stands for this setting: HCC1395, HCC1395, stimulation with CHIR99021 (GSK3β inhibitor).
[6] abbreviates: HCC1395, Table S2, TopFlash, GSK3β inhibitor stimulation, read-out: GSK HCC1395 IC50.

Consider `Fc1ccccc1CNc1ncnc2sccc12` [Compound 4e, N-(2-fluorobenzyl)thieno[2,3-d]pyrimidin-4-amine], for which the “GSK HCC1395 Comments” value in data set [1] is given as “Toxic”. In data set [2] (HCC1395 Cytotoxicity IC50), this molecule came in with a concentration for half-maximal inhibition (IC50) of 7.45 ± 2.08 µM. Further, in data set [3], the “Cytotoxicity (Renilla) in words” value is “toxicity”.
For the molecule `Fc1cccc(CNc2ncnc3sccc23)c1` [Compound 4f, N-(3-fluorobenzyl)thieno[2,3-d]pyrimidin-4-amine], the IC50 in data set [1] (setting [4]) is greater than 50 µM. Further, the “GSK HCC1395 Comments” value in data set [1] is “Inactive”.
For the molecule `Clc1ccccc1CNc1ncnc2sccc12` [Compound 4h, N-(2-chlorobenzyl)thieno[2,3-d]pyrimidin-4-amine], the “GSK HCC1395 Comments” value in data set [1] is “Toxic”. Moreover, in data set [2] (HCC1395 Cytotoxicity IC50), the half-inhibitory concentration (IC50) amounted to 8.61 ± 4.38 µM. For the same molecule, in data set [3], the “HCC1395 Cytotoxicity Efficacy” value is given as 67.1 ± 7.8%.
Turning to `N#Cc1ccccc1CNc1ncnc2sccc12` [Compound 4k, 2-((thieno[2,3-d]pyrimidin-4-ylamino)methyl)benzonitrile], in data set [1] (setting [4]), the half-maximal inhibitory concentration (IC50) was greater than 50 µM. In addition, the “GSK HCC1395 Comments” value in data set [1] is given as “Inactive”.
With `N#Cc1cccc(CNc2ncnc3sccc23)c1` [Compound 4l, 3-((thieno[2,3-d]pyrimidin-4-ylamino)methyl)benzonitrile], in data set [1], the “GSK HCC1395 Comments” value is on record as “Toxic”. Inhibition in data set [2] (HCC1395 Cytotoxicity IC50) was half-maximal at 10 ± 3.36 µM (IC50). Moreover, the “HCC1395 Cytotoxicity Efficacy” value in data set [3] came to 32.2 ± 10.5%.
Regarding `N#Cc1ccc(CNc2ncnc3sccc23)cc1` [Compound 4m, 4-((thieno[2,3-d]pyrimidin-4-ylamino)methyl)benzonitrile], in data set [1], the “TopFlash activity in words” value is recorded as “abrogated the activity” and the “GSK HCC1395 Comments” value is “Inactive”. Besides, the IC50 in data set [1] (setting [4]) was greater than 50 µM. Further, the “GSK HCC1395 Renilla Comments” value in data set [3] was “Non-toxic”.
Regarding `COc1cccc(C(C)Nc2ncnc3sccc23)c1` (stereo not shown) [Compound 5b, N-(1-(3-methoxyphenyl)ethyl)thieno[2,3-d]pyrimidin-4-amine], the “TopFlash activity in words” value in data set [1] was “inactive”. Further, in data set [1] (setting [4]), the IC50 was greater than 50 µM. Moreover, the “GSK HCC1395 Renilla Comments” value in data set [3] is reported as “Non-toxic”.
Take `CC(Nc1ncnc2sccc12)c1ccc(F)cc1` (stereo not shown) [Compound 5c, N-(1-(4-fluorophenyl)ethyl)thieno[2,3-d]pyrimidin-4-amine]: in data set [1] (setting [5]), the Emax came out at 46.9 ± 8.41%. For the same molecule, the IC50 is 2.1 ± 1.64 µM in data set [1] (setting [4]) and greater than 50 µM in data set [2] (HCC1395 Cytotoxicity IC50).
The like results for `Cc1ccc(C(C)Nc2ncnc3sccc23)cc1` (stereo not shown) [Compound 5e, N-(1-(p-tolyl)ethyl)thieno[2,3-d]pyrimidin-4-amine] were, in that order, 47 ± 9.67%, 0.63 ± 0.21 µM and greater than 50 µM.
With `c1ccc(Nc2ncnc3sccc23)cc1` [Compound 5f, N-phenylthieno[2,3-d]pyrimidin-4-amine], the “TopFlash activity in words” value in data set [1] was “inactive”. Besides, the IC50 in data set [1] (setting [4]) was greater than 50 µM.
In the case of `CCN(Cc1cccc(OC)c1)c1ncnc2sccc12` [Compound 5i, N-ethyl-N-(3-methoxybenzyl)thieno[2,3-d]pyrimidin-4-amine], the “GSK HCC1395 Comments” value in data set [1] is “Toxic”. For the same molecule, it took 8.3 ± 3.79 µM to reach half-maximal inhibition in data set [2] (HCC1395 Cytotoxicity IC50) (IC50). The “HCC1395 Cytotoxicity Efficacy” value in data set [3] is recorded as 64.1 ± 9.3%.
Regarding `COc1cccc(CCNc2ncnc3sccc23)c1` [Compound 5n, N-(3-methoxyphenethyl)thieno[2,3-d]pyrimidin-4-amine], in data set [1], the “TopFlash activity in words” value was “not tolerated” and the “GSK HCC1395 Comments” value is listed as “Inactive”. For the same molecule, the half-maximal inhibitory concentration (IC50) in data set [1] (setting [4]) is greater than 50 µM.
As for `COc1cccc(C(=O)Nc2ncnc3sccc23)c1` [Compound 7, 3-methoxy-N-(thieno[2,3-d]pyrimidin-4-yl)benzamide], the IC50 in data set [1] (setting [4]) is greater than 50 µM. Besides, in data set [1], the “GSK HCC1395 Comments” value was “Inactive”.
In the case of `COc1ccccc1CNc1ncnc2ccccc12` [Compound 9a, N-(2-methoxybenzyl)quinazolin-4-amine], the “GSK HCC1395 Comments” value in data set [1] is “Toxic”. In data set [2] (HCC1395 Cytotoxicity IC50), this molecule returned a concentration for half-maximal inhibition (IC50) of 29 ± 14.5 µM. In addition, the “HCC1395 Cytotoxicity Efficacy” value in data set [3] was 100 ± 0%.
In the case of `Clc1ccc(CCNc2ncnc3ccccc23)cc1` [Compound 9g, N-(4-chlorophenethyl)quinazolin-4-amine], in data set [1], the “GSK HCC1395 Comments” value was “Toxic”. In addition, in data set [2], the IC50 was found to be 13 ± 1.45 µM. Moreover, the “HCC1395 Cytotoxicity Efficacy” value in data set [3] turned out to be 100 ± 0%.
Take `CC(Nc1ncnc2ccccc12)c1ccc(F)cc1` (stereo not shown) [Compound 9h, N-(1-(4-fluorophenyl)ethyl)quinazolin-4-amine]: the Emax in data set [1] (setting [5]) stood at 66.4 ± 6.9%. Besides, the IC50 came to 10.7 ± 2.33 µM in data set [1] (setting [4]) and 16.6 ± 6.59 µM in data set [2] (HCC1395 Cytotoxicity IC50). Also, the “HCC1395 Cytotoxicity Efficacy” value in data set [3] came out at 51.1 ± 21.3%.
As for `COc1cccc(CNc2ncnc3c(C)csc23)c1` [Compound 10, N-(3-methoxybenzyl)-7-methylthieno[3,2-d]pyrimidin-4-amine], the “TopFlash activity in words” value in data set [1] is on record as “no longer active”. For the same molecule, the IC50 in data set [1] (setting [4]) is greater than 100 µM; in data set [1] (setting [6]), greater than 50 µM; in data set [2] (HCC1395 Cytotoxicity IC50), greater than 100 µM. Besides, the “GSK HCC1395 Comments” value in data set [1] was “Inactive”. For the same molecule, the “GSK HCC1395 Renilla Comments” value in data set [3] is on record as “Non-toxic”.
Regarding `COc1cccc(CNc2cc(Cl)ncn2)c1` [Compound 11, 6-chloro-N-(3-methoxybenzyl)pyrimidin-4-amine], in data set [1], the “TopFlash activity in words” value is on record as “no longer active”. In data set [1] (setting [5]), the Emax stood at 100%. Moreover, the 50% inhibitory concentration (IC50) in data set [1] (setting [4]) was 58.2 ± 1.48 µM; in data set [1] (setting [6]), greater than 50 µM.
Turning to `COc1cccc(CNc2ccncn2)c1` [Compound 12, N-(3-methoxybenzyl)pyrimidin-4-amine], the “TopFlash activity in words” value in data set [1] was “no longer active”. Also, the IC50 in data set [1] (setting [4]) is greater than 100 µM; in data set [1] (setting [6]), greater than 50 µM. In data set [1], the “GSK HCC1395 Comments” value is “Inactive”.
As to `COc1cccc(CNc2nccc3ccccc23)c1` [Compound 13, N-(3-methoxybenzyl)isoquinolin-1-amine], the half-inhibitory concentration (IC50) is greater than 100 µM in data set [1] (setting [4]), greater than 50 µM in data set [1] (setting [6]) and greater than 100 µM in data set [2] (HCC1395 Cytotoxicity IC50). For the same molecule, the “GSK HCC1395 Renilla Comments” value in data set [3] was “Non-toxic”.
Take `COc1cccc(CNc2ccnc3ccccc23)c1` [Compound 16, N-(3-methoxybenzyl)quinolin-4-amine]: in data set [1], the “GSK HCC1395 Comments” value is given as “Toxic”. Further, the IC50 in data set [2] (HCC1395 Cytotoxicity IC50) stood at 18.7 µM. The “HCC1395 Cytotoxicity Efficacy” value in data set [3] is on record as 39.4 ± 13.0%.
